By half-life is commonly meant the time needed for the level to fall by half in the phase considered. In general, IC50 refers to the concentration that gives 50% inhibition.

The source made the active and inactive calls.

Data set [1] in a line: Metabolic stability in human liver microsome assessed as half life measured upto 60 mins by LC-MS/MS analysis. It is filed as ADME. The following applies: liver microsomes. For orientation: Liver microsomes are a subcellular fraction often used to study metabolism.
Data set [2] is described as follows: Metabolic stability in mouse liver microsome assessed as half life measured upto 60 mins by LC-MS/MS analysis. The note with it: liver microsomes. It counts as ADME.
Data set [3] deals with TERT-RPE1. As to the kind of experiment: Induction of cell cycle arrest in human TERT-RPE1 cells assessed as accumulation of cells at G2/M phase at 1000 nM incubated for 72 hrs by annexin V-FITC and PI staining based flow cytometry analysis. It counts as functional. (In flow cytometry, cells or beads pass a laser one at a time.)
For data set [4], the system named is HeLa. Nature of the data set: Induction of cell cycle arrest in human HeLa cells assessed as accumulation of cells at G2/M phase at 1000 nM incubated for 72 hrs by annexin V-FITC and PI staining based flow cytometry analysis. It counts as functional.
In data set [5] the test system is TERT-RPE1. Nature of the data set: Induction of cell cycle arrest in human TERT-RPE1 cells assessed as accumulation of cells at G1 phase at 2500 nM incubated for 72 hrs by annexin V-FITC and PI staining based flow cytometry analysis. It is filed as functional.
For data set [6], the system named is HeLa. As to the kind of experiment: Induction of cell cycle arrest in human HeLa cells assessed as accumulation of cells at S phase at 1000 nM incubated for 72 hrs by annexin V-FITC and PI staining based flow cytometry analysis. It is filed as functional.
Data set [7] relates to HeLa. Nature of the data set: Induction of cell cycle arrest in human HeLa cells assessed as accumulation of cells at G1 phase at 2500 nM incubated for 72 hrs by annexin V-FITC and PI staining based flow cytometry analysis. It is filed as functional.
Data set [8] concerns HeLa. Nature of the data set: Induction of cell cycle arrest in human HeLa cells assessed as accumulation of cells at G2/M phase at 100 nM incubated for 72 hrs by annexin V-FITC and PI staining based flow cytometry analysis. It counts as functional.
The next data set has as its system Farage. As to the kind of experiment: Antiproliferative activity against human Farage cells assessed as inhibition of cell growth measured for 72 hrs by MTT assay. It counts as functional, cell-based. For orientation: Tetrazolium dyes change colour on reduction, which living cells bring about.
In data set [9] the test system is AHH-1. Nature of the data set: Induction of cell cycle arrest in human AHH-1 cells assessed as accumulation of cells at S phase at 2500 nM incubated for 72 hrs by annexin V-FITC and PI staining based flow cytometry analysis. It counts as functional.
Data set [10] deals with AHH-1. As to the kind of experiment: Induction of cell cycle arrest in human AHH-1 cells assessed as accumulation of cells at G2/M phase at 100 nM incubated for 72 hrs by annexin V-FITC and PI staining based flow cytometry analysis. It counts as functional.
Data set [11] concerns HeLa. As to the kind of experiment: Induction of cell cycle arrest in human HeLa cells assessed as accumulation of cells at G1 phase at 100 nM incubated for 72 hrs by annexin V-FITC and PI staining based flow cytometry analysis. It counts as functional.
The next data set has as its system TMD8. Nature of the data set: Antiproliferative activity against human TMD8 cells assessed as inhibition of cell growth measured for 72 hrs by MTT assay. It counts as functional, cell-based. The following applies: TMD8, 72 h.
For data set [12], the system named is AHH-1. Nature of the data set: Induction of cell cycle arrest in human AHH-1 cells assessed as accumulation of cells at G1 phase at 2500 nM incubated for 72 hrs by annexin V-FITC and PI staining based flow cytometry analysis. It is filed as functional.
Data set [13] has as its system TERT-RPE1. As to the kind of experiment: Induction of cell cycle arrest in human TERT-RPE1 cells assessed as accumulation of cells at G2/M phase at 100 nM incubated for 72 hrs by annexin V-FITC and PI staining based flow cytometry analysis. It is filed as functional.
Data set [14] has as its system AHH-1. Nature of the data set: Induction of cell cycle arrest in human AHH-1 cells assessed as accumulation of cells at G1 phase at 100 nM incubated for 72 hrs by annexin V-FITC and PI staining based flow cytometry analysis. It is filed as functional.
Data set [15] deals with AHH-1. As to the kind of experiment: Induction of cell cycle arrest in human AHH-1 cells assessed as accumulation of cells at sub-G1 phase incubated for 72 hrs by annexin V-FITC and PI staining based flow cytometry analysis. It is filed as functional.
The subject of data set [16] is AHH-1. Nature of the data set: Induction of cell cycle arrest in human AHH-1 cells assessed as accumulation of cells at G1 phase at 1000 nM incubated for 72 hrs by annexin V-FITC and PI staining based flow cytometry analysis. It counts as functional.
Another data set has as its system U2932. As to the kind of experiment: Antiproliferative activity against human U2932 cells assessed as inhibition of cell growth measured for 72 hrs by MTT assay. It counts as functional, cell-based. The following applies: U2932, 72 h.
The test system of a further data set is Z-138. As to the kind of experiment: Antiproliferative activity against human Z138 cells assessed as inhibition of cell growth measured for 72 hrs by MTT assay. It is filed as functional, cell-based. The note with it: Z-138, 72 h.
Data set [17] has as its system AHH-1. Nature of the data set: Induction of apoptosis in human AHH-1 cells at 100 to 2500 nM measured after 72 hrs by annexin V-FITC and PI staining based flow cytometry analysis. The following applies: dose 100-2500 nM. It counts as functional, cell-based.
The subject of data set [18] is TERT-RPE1. As to the kind of experiment: Induction of cell cycle arrest in human TERT-RPE1 cells assessed as accumulation of cells at G1 phase at 1000 nM incubated for 72 hrs by annexin V-FITC and PI staining based flow cytometry analysis. It is filed as functional.
The subject of data set [19] is HeLa. As to the kind of experiment: Induction of cell cycle arrest in human HeLa cells assessed as accumulation of cells at G1 phase at 1000 nM incubated for 72 hrs by annexin V-FITC and PI staining based flow cytometry analysis. It counts as functional.
Data set [20] has as its system AHH-1. Nature of the data set: Induction of cell cycle arrest in human AHH-1 cells assessed as accumulation of cells at G2/M phase at 1000 nM incubated for 72 hrs by annexin V-FITC and PI staining based flow cytometry analysis. It is filed as functional.
The test system of data set [21] is HeLa. Nature of the data set: Induction of cell cycle arrest in human HeLa cells assessed as accumulation of cells at S phase at 100 nM incubated for 72 hrs by annexin V-FITC and PI staining based flow cytometry analysis. It is filed as functional.
Another data set relates to KARPAS-422. As to the kind of experiment: Antiproliferative activity against human KARPAS-422 cells assessed as inhibition of cell growth measured for 72 hrs by MTT assay. The following applies: KARPAS-422, 72 h. It counts as functional, cell-based.
The subject of data set [22] is AHH-1. Nature of the data set: Induction of cell cycle arrest in human AHH-1 cells assessed as accumulation of cells at S phase at 100 nM incubated for 72 hrs by annexin V-FITC and PI staining based flow cytometry analysis. It is filed as functional.
The subject of data set [23] is AHH-1. Nature of the data set: Induction of cell cycle arrest in human AHH-1 cells assessed as accumulation of cells at S phase at 1000 nM incubated for 72 hrs by annexin V-FITC and PI staining based flow cytometry analysis. It counts as functional.
The test system of data set [24] is TERT-RPE1. Nature of the data set: Induction of cell cycle arrest in human TERT-RPE1 cells assessed as accumulation of cells at S phase at 100 nM incubated for 72 hrs by annexin V-FITC and PI staining based flow cytometry analysis. It counts as functional.
For the next data set, the system named is Maver1. Nature of the data set: Antiproliferative activity against human MAVER-1 cells assessed as inhibition of cell growth measured for 72 hrs by MTT assay. It counts as functional, cell-based. The note with it: Maver1, 72 h.
Data set [25] deals with HeLa. As to the kind of experiment: Induction of cell cycle arrest in human HeLa cells assessed as accumulation of cells at G2/M phase at 2500 nM incubated for 72 hrs by annexin V-FITC and PI staining based flow cytometry analysis. It is filed as functional.
In data set [26] the test system is TERT-RPE1. Nature of the data set: Induction of cell cycle arrest in human TERT-RPE1 cells assessed as accumulation of cells at S phase at 1000 nM incubated for 72 hrs by annexin V-FITC and PI staining based flow cytometry analysis. It counts as functional.
For data set [27], the system named is TERT-RPE1. As to the kind of experiment: Induction of cell cycle arrest in human TERT-RPE1 cells assessed as accumulation of cells at S phase at 2500 nM incubated for 72 hrs by annexin V-FITC and PI staining based flow cytometry analysis. It counts as functional.
Data set [28] concerns TERT-RPE1. Nature of the data set: Induction of cell cycle arrest in human TERT-RPE1 cells assessed as accumulation of cells at G2/M phase at 2500 nM incubated for 72 hrs by annexin V-FITC and PI staining based flow cytometry analysis. It counts as functional.
The subject of data set [29] is HeLa. As to the kind of experiment: Induction of cell cycle arrest in human HeLa cells assessed as accumulation of cells at S phase at 2500 nM incubated for 72 hrs by annexin V-FITC and PI staining based flow cytometry analysis. It is filed as functional.
Data set [30] relates to AHH-1. As to the kind of experiment: Induction of cell cycle arrest in human AHH-1 cells assessed as accumulation of cells at G2/M phase at 2500 nM incubated for 72 hrs by annexin V-FITC and PI staining based flow cytometry analysis. It counts as functional.
The subject of data set [31] is TERT-RPE1. Nature of the data set: Induction of cell cycle arrest in human TERT-RPE1 cells assessed as accumulation of cells at G1 phase at 100 nM incubated for 72 hrs by annexin V-FITC and PI staining based flow cytometry analysis. It is filed as functional.
For data set [32], the system named is HeLa. As to the kind of experiment: Induction of cell cycle arrest in human HeLa cells assessed as accumulation of cells at sub-G1 phase incubated for 72 hrs by annexin V-FITC and PI staining based flow cytometry analysis. It counts as functional.

In the case of `CCOc1ccc2ccc(=O)oc2c1` [ETHOXYCOUMARIN], the half-life in data set [1] was 8.3 min; in data set [2] it was 3.3 min.

`CC(C)NCC(O)COc1cccc2ccccc12` (stereo not given) [PROPRANOLOL]: the figures for the half-life in data set [1] and in data set [2] were 47 min and 11.8 min, respectively.

For the compound `COc1ccc(/C=C\c2cc(OC)c(OC)c(OC)c2)cc1O` [COMBRETASTATIN A4], the Activity in the data set with TERT-RPE1 [3] is recorded as 74.6%; with HeLa [4], 73.1%; with TERT-RPE1 [5] it was 19%; with HeLa [6], 16.8%; in the data set with HeLa [7] it was 8.8%; in the data set with HeLa [8] it was 61.1%. Besides, the Activity in the data set with AHH-1 [9] was determined as 10.3%; with AHH-1 [10], 74.5%; in the data set on HeLa [11], 23.4%; in the data set with AHH-1 [12] it was 7%; in the data set on TERT-RPE1 [13], 68%; with AHH-1 [14], 8.6%. In addition, the Activity worked out at 7.8% with AHH-1 [16]; 17.1% with TERT-RPE1 [18]; 10.1% in the data set with HeLa [19]; 78.8% with AHH-1 [20]; 15.5% in the data set with HeLa [21]; 17% with AHH-1 [22]. In addition, the Activity amounted to 13.4% in the data set with AHH-1 [23]; 9% in the data set with TERT-RPE1 [24]; 75.2% in the data set with HeLa [25]; 8.4% in the data set with TERT-RPE1 [26]; 5.4% with TERT-RPE1 [27]; 73% in the data set on TERT-RPE1 [28]. In addition, the Activity in the data set on HeLa [29] was 9.2%; in the data set with AHH-1 [30], 74.1%; in the data set with TERT-RPE1 [31], 23%. The IC50 with Farage stood at 0.7 nM; in the data set with TMD8 it was 0.66 nM; in the data set on U2932, 0.89 nM; with Z-138, 0.78 nM; in the data set on KARPAS-422 it was 0.58 nM; in the data set on Maver1 it was 4.6 nM. Besides, the result with AHH-1 [15], in the data set with AHH-1 [17] and in the data set on HeLa [32] was Active.

The values are drawn from ChEMBL document CHEMBL5352470, “RS6077 induces mitotic arrest and selectively activates cell death in human cancer cell lines and in a lymphoma tumor in vivo” (Eur J Med Chem, 2023).
